Legend:
[1] = tested on: DQ8-Glia-α1 T cell clone; test: T cell proliferation assay, DQ8-Glia-α1 T cell clone; assay type: cell-based, human; parameters: key: ± = 100 times reduced T cell stimulation compared to the ‘canonical’ epitope; - = 1000 times reduced T cell stimulation compared to the ‘canonical’ epitope; settings: 3H-thymidine proliferation, triplicate; deamidated peptides, antigen 1–10 µg/ml; stimulation compared to canonical epitope
Experimental: (§1) Gluten specific T cell clones were generated from small intestinal biopsies of celiac disease patients as described before, [11], [12]. All patients signed an informed consent form which was approved by the hospital ethics committee. Proliferation assays were performed in triplicate in 150 µl Iscove's Modified Dulbecco's Medium (Bio Whittaker, Verviers, Belgium) with 10% pooled normal human serum in 96 well flat-bottom plates using 2×10^4 gluten specific T cells stimulated with […] irradiated HLA-DQ2-matched allogeneic peripheral blood mononuclear cells (3000 rad) in the presence or absence of antigen (1–10 µg/ml), [11], [12]. After 2 days ^3H-thymidine (0.5 µCi/well) was added to the cultures, and 18–20 hours thereafter the cells were harvested. ^3H-thymidine incorporation in the T cell DNA was determined with a liquid scintillation counter (1205 Betaplate Liquid Scintillation Counter, LKB Instruments, Gaithersburg, MD). A binding assay was performed as described previously.

[2] = tested on: DQ2-Glia-α2 specific T cell clones; test: T cell proliferation assay, DQ2-Glia-α2 specific T cell clone; assay type: cell-based, human; parameters: key: ± = 100 times reduced T cell stimulation compared to the ‘canonical’ epitope; - = 1000 times reduced T cell stimulation compared to the ‘canonical’ epitope; settings: 3H-thymidine proliferation, triplicate; deamidated 14- to 17-mer peptides, antigen 1–10 µg/ml; stimulation compared to canonical epitope
Experimental: as §1

[3] = tested on: DQ2-Glia-α1 specific T cell clones; test: T cell proliferation assay, DQ2-Glia-α1 specific T cell clone; assay type: cell-based, human; parameters: key: ± = 100 times reduced T cell stimulation compared to the ‘canonical’ epitope; - = 1000 times reduced T cell stimulation compared to the ‘canonical’ epitope; settings: 3H-thymidine proliferation, triplicate; deamidated 14- to 17-mer peptides, antigen 1–10 µg/ml; stimulation compared to canonical epitope
Experimental: as §1

[4] = tested on: T cell; settings: cited from earlier work
Source text: Many gluten peptides with T cell stimulatory properties have now been identified. Such peptides have been found in wheat α-, γ-, and ω-gliadins as well as in low molecular weight (LMW) and high molecular weight (HMW) glutenins [8]–[14]. […] An α-gliadin derived 33-mer peptide (amino acid sequence […]) was identified that encodes six partially o ...

[5] = cited from earlier work
Source text: In addition to the canonical epitope motifs, a large series of sequence variants with one or two amino acid substitutions were detected ( Tables 2 , 3 , 4 , 5 ). The large majority of the Gli-B2 gliadins contained sequence variants of the DQ2-Glia-α1, DQ2-Glia-α2, and DQ2-Glia-α3 epitopes with two amino acid substitutions. Furthermore, Gli-A2 transcripts harbored a proline to serine substitution at position 8 (p8) of the DQ2-Glia-α2 epitope and a sequence variant (QGSFRP(S/F)QQN, amino acid substitution in bold) of the DQ8-Glia-α1 epitopes. Importantly, the 33-mer peptide ([…] ...

Substance: LGEGFFQPSQENP [Peptide 20]
- DQ8-Glia-α1 T cell clone [1]: -

Substance: QPQPFP-PELPYPQTQP [Peptide 15]
- Glia-α2 T cell clone [2]: -
- Glia-α1 T cell clone [3]: -

Substance: LQLQPFPQPQLPYPQPQLPYPQPQLPYPQPQPF [33-mer peptide]
- T cell stimulatory properties [4]: very potent T cell stimulatory properties
- resistance to degradation in the gastrointestinal tract [5]: highly resistant to degradation
